This is an account of results in ChEMBL document CHEMBL3632488, “Discovery of potent and selective cytotoxic activity of new quinazoline-ureas against TMZ-resistant glioblastoma multiforme (GBM)” (Eur J Med Chem, 2015).

The nature of experiment [1]: Cytotoxicity against normal human astrocytes assessed as cell viability incubated for 72 hrs by WST-1 method. Format: cell-based. The note with it: Astrocyte. Background: Tetrazolium dyes change colour on reduction, which living cells bring about.
Experiment [2] can be described thus: Selectivity index, ratio of IC50 for normal human astrocytes to IC50 for human GBM3 cells.
Experiment [3] is described as follows: Antiproliferative activity against human GBM3 cells assessed as reduction in cell viability incubated for 72 hrs by WST-1 method. The class given is functional, cell-based. The note with it: GBM3, 72 h.
The nature of experiment [4]: Antiproliferative activity against human GBM2 cells assessed as reduction in cell viability at 10 uM incubated for 72 hrs by WST-1 method. The class given is functional. The note with it: GBM2, 72 h.
Experiment [5] can be described thus: Selectivity index, ratio of IC50 for normal human astrocytes to IC50 for human GBM1 cells.
A short description of experiment [6]: Antiproliferative activity against human GBM1 cells assessed as reduction in cell viability incubated for 72 hrs by WST-1 method. The class given is functional, cell-based. The note with it: GBM1, 72 h.
Experiment [7] in a line: Antiproliferative activity against human GBM3 cells assessed as reduction in cell viability at 10 uM incubated for 72 hrs by WST-1 method. The class given is functional. The note with it: GBM3, 72 h.
A short description of experiment [8]: Antiproliferative activity against human GBM1 cells assessed as reduction in cell viability at 10 uM incubated for 72 hrs by WST-1 method. Format: functional. The note with it: GBM1, 72 h.
Experiment [9] can be described thus: Selectivity index, ratio of IC50 for normal human astrocytes to IC50 for human GBM2 cells.
A short description of experiment [10]: Antiproliferative activity against human GBM2 cells assessed as reduction in cell viability incubated for 72 hrs by WST-1 method. The note with it: GBM2, 72 h. Format: functional, cell-based.

Where only a bound is given, the exact number is not on record here.

One may read the IC50 as the concentration that inhibits the measured activity by half. The term inhibition denotes the change of the read-out against control, counted positive when it falls. Turning to `O=C(Nc1ccccc1F)Nc1cc2ncncc2cc1OCc1ccccc1`, the half-inhibitory concentration (IC50) was over 10 µM in experiment [1], 5.9 µM in [3], 6.1 µM in experiment [6] and 4.5 µM in experiment [10]. The “Ratio IC50” value in experiment [2], in experiment [5] and in experiment [9] was over 1.8 each time. Besides, the inhibition at 10 µM was found to be 83.7% in experiment [4], 75.5% in experiment [7] and 72% in experiment [8].

For the compound `CC/C(=C(\c1ccccc1)c1ccc(OCCN(C)C)cc1)c1ccccc1` [TAMOXIFEN], the IC50 in experiment [1] was over 10 µM; in experiment [3], 4.7 µM; in [6] it was 7.5 µM; in experiment [10], 3.5 µM. The “Ratio IC50” value in [2], in experiment [5] and in [9] was over 2.1 throughout. Besides, the results for the inhibition at 10 µM in experiment [4], in experiment [7] and in [8] were 101%, 95.7% and 98.4%, respectively.

Consider `CCc1c2c(nc3ccc(OC(=O)N4CCC(N5CCCCC5)CC4)cc13)-c1cc3c(c(=O)n1C2)COC(=O)[C@]3(O)CC`, for which the 50% inhibitory concentration (IC50) in experiment [1] was over 10 µM; in [3], 5 µM; in experiment [6] it was over 10 µM; in [10], 2.4 µM. Further, the values for the inhibition at 10 µM in experiment [4], in experiment [7] and in experiment [8] were 91.8%, 54.1% and 34.1%, respectively.

For the compound `O=C(Nc1cc2ncncc2cc1OCc1ccccc1Cl)Nc1cccc2ccccc12`, the IC50 in [1] turned out to be 2.3 µM; in [3] it was 2.7 µM; in experiment [6], 2.9 µM; in experiment [10], 2.9 µM. Moreover, the “Ratio IC50” value in experiment [2], in [5] and in [9] was 1 throughout. The inhibition at 10 µM stood at 98.1% in experiment [4], 100% in experiment [7] and 97.3% in experiment [8].

Turning to `O=C(Nc1ccc(Cl)c(Cl)c1)Nc1cc2ncncc2cc1OCc1ccccc1F`, the IC50 in [1] was 3.9 µM; in experiment [3], over 10 µM; in experiment [6], 4.1 µM; in experiment [10], 6 µM. In addition, the values for the inhibition at 10 µM in experiment [4], in [7] and in [8] were 87.6%, 50.2% and 84.4%, respectively.

Regarding `O=C(Nc1ccccc1F)Nc1cc2ncncc2cc1OCc1cccc(F)c1`, the concentration for half-maximal inhibition (IC50) in experiment [1] is over 10 µM; in experiment [3], 8.1 µM; in experiment [6], 8 µM; in experiment [10], 6.4 µM. The “Ratio IC50” value in experiment [2], in experiment [5] and in experiment [9] was over 1.3 in each case. In addition, the figures for the inhibition at 10 µM in experiment [4], in experiment [7] and in experiment [8] were 74.5%, 61.4% and 63%, respectively.

For the compound `O=C(Nc1cccc(Cl)c1)Nc1cc2ncncc2cc1OCc1ccccc1`, the 50% inhibitory concentration (IC50) was determined as 7.4 µM in [1], 6.4 µM in experiment [3], 5.7 µM in [6] and 4.1 µM in experiment [10]. In addition, the “Ratio IC50” value in [2], in [5] and in experiment [9] was 1.4 throughout. Besides, the inhibition at 10 µM in [4] turned out to be 97.3%; in experiment [7] it was 74.8%; in [8] it was 79.1%.

Turning to `O=C(Nc1ccccc1F)Nc1cc2ncncc2cc1OCc1cccc(Cl)c1`, the IC50 in [1] was determined as 8.7 µM; in [3] it was 7.5 µM; in [6] it was 4.2 µM; in [10] it was 4.4 µM. Further, the “Ratio IC50” value in experiment [2], in [5] and in experiment [9] was 1.6 in each case. In addition, the inhibition at 10 µM was 82.3% in experiment [4], 58.8% in experiment [7] and 73% in experiment [8].

Consider `O=C(Nc1ccc(C(F)(F)F)cc1)Nc1cc2ncncc2cc1OCc1cccc(F)c1`, for which the IC50 in experiment [1] came to 8.9 µM; in experiment [3], 6.3 µM; in [6], 3.8 µM; in experiment [10], 3.2 µM. The “Ratio IC50” value in [2], in experiment [5] and in experiment [9] was 2 each time. For the same compound, the inhibition at 10 µM is 99.5% in [4], 95.4% in experiment [7] and 76.2% in experiment [8].

Regarding `O=C(Nc1cccc(F)c1)Nc1cc2ncncc2cc1OCc1cccc(Cl)c1`, the 50% inhibitory concentration (IC50) in [1] was over 10 µM; in [3], 8.3 µM; in experiment [6], 3.7 µM; in [10], 7.8 µM. Also, the “Ratio IC50” value in experiment [2], in experiment [5] and in [9] was over 1.5 throughout. Also, the inhibition at 10 µM in experiment [4] came to 76.3%; in experiment [7], 54.5%; in experiment [8] it was 73.2%.

Turning to `O=C(Nc1cccc(F)c1)Nc1cc2ncncc2cc1OCc1ccccc1Cl`, the IC50 in experiment [1] came to 9.4 µM; in experiment [3] it was 2.4 µM; in [6] it was 4 µM; in experiment [10], 3.2 µM. Besides, the “Ratio IC50” value in experiment [2], in experiment [5] and in [9] was 2.9 throughout. Further, the inhibition at 10 µM in experiment [4] was 102%; in experiment [7], 102%; in experiment [8] it was 97.7%.

With `O=C(Nc1cc2ncncc2cc1OCc1ccc(F)cc1)Nc1cccc2ccccc12`, the 50% inhibitory concentration (IC50) was found to be 8.5 µM in experiment [1], 8.3 µM in experiment [3], 8.1 µM in experiment [6] and 4.5 µM in experiment [10]. The “Ratio IC50” value in [2], in experiment [5] and in [9] was 1.2 each time. Besides, the figures for the inhibition at 10 µM in experiment [4], in experiment [7] and in [8] were 99%, 94.4% and 99.3%, respectively.

Consider `O=C(Nc1cccc(Cl)c1)Nc1cc2ncncc2cc1OCc1cccc(Cl)c1`, for which the IC50 in [1] is over 10 µM; in experiment [3], 3.5 µM; in experiment [6], 3.3 µM; in experiment [10] it was 3.5 µM. Besides, the “Ratio IC50” value in experiment [2], in [5] and in [9] was over 2.9 in each case. For the same compound, the inhibition at 10 µM is 98.2% in [4], 100% in experiment [7] and 85% in [8].

As for `O=C(Nc1ccc(C(F)(F)F)cc1)Nc1cc2ncncc2cc1OCc1ccccc1`, the IC50 is 9.2 µM in experiment [1], 3.7 µM in experiment [3], 5.7 µM in experiment [6] and 8.6 µM in [10]. The “Ratio IC50” value in experiment [2], in experiment [5] and in experiment [9] was 1.5 in each case. For the same compound, the inhibition at 10 µM in experiment [4] turned out to be 95.2%; in [7], 99.1%; in experiment [8], 92.2%.

In the case of `COc1cc([C@@H]2c3cc4c(cc3[C@@H](O[C@@H]3O[C@@H]5CO[C@@H](C)O[C@H]5[C@H](O)[C@H]3O)[C@H]3COC(=O)[C@H]23)OCO4)cc(OC)c1O` [ETOPOSIDE], the IC50 in experiment [1] was over 10 µM; in [3] it was over 10 µM; in experiment [6] it was over 10 µM; in [10], 1.1 µM. Moreover, the inhibition at 10 µM in experiment [4] is 88.2%; in experiment [7], 22.1%; in experiment [8], 53.5%.
